Reference: ChEMBL document CHEMBL1201862, “PubChem BioAssay data set” (2004)
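In this assay, cells in 96-well plates receive the compound at five concentrations for 48 hours. Endpoints are linearly interpolated between the surrounding concentrations. The concentration for 50% growth inhibition is given as GI50.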 Activity calls are given as the source filed them. No stated cut-off is given here; in the data, active = GI50 up to about 1.1 µM and inactive = higher.

Key:
Experiment in all cases: growth of human tumour cells (NCI), 48 h
[1] = system: DMS-114
[2] = system: SF-268
[3] = system: SK-MEL-28
[4] = system: Malme-3M
[5] = system: HOP-62
[6] = system: SF-295
[7] = system: IGROV-1
[8] = system: A498
[9] = system: SR
[10] = system: HOP-18
[11] = system: UACC-257
[12] = system: SK-MEL-5
[13] = system: NCI-H522
[14] = system: EKVX
[15] = system: COLO 205
[16] = system: DLD-1
[17] = system: OVCAR-8
[18] = system: 786-0
[19] = system: CCRF-CEM
[20] = system: DMS-273
[21] = system: SF-539
[22] = system: RPMI-8226
[23] = system: ACHN
[24] = system: SNB-19
[25] = system: UACC-62
[26] = system: NCI-H23
[27] = system: HT-29
[28] = system: HCC 2998
[29] = system: U-251
[30] = system: K562
[31] = system: SNB-75
[32] = system: NCI-H226
[33] = system: SNB-78
[34] = system: HCT-116
[35] = system: LXFL 529
[36] = system: M19-MEL
[37] = system: M14
[38] = system: HL-60
[39] = system: SW-620
[40] = system: OVCAR-4
[41] = system: MOLT-4
[42] = system: KM-20L2
[43] = system: A549
[44] = system: UO-31
[45] = system: SN12C
[46] = system: RXF 393
[47] = system: SK-OV-3
[48] = system: HCT-15
[49] = system: HOP-92
[50] = system: NCI-H460
[51] = system: OVCAR-3
[52] = system: OVCAR-5
[53] = system: CAKI-1
[54] = system: SK-MEL-2
[55] = system: TK-10
[56] = system: LOX IMVI
[57] = system: XF498
[58] = system: KM12

In the case of `CC(=O)c1ccc(N2C(=O)C3c4[nH]c5ccccc5c4C4CCC(C(C)(C)C)CC4C3C2=O)cc1` (stereo unspecified), the GI50 [1] is reported as 23.1 µM (inactive), the GI50 [2] is reported as 17.3 µM (inactive) and the GI50 [3] is reported as 28.8 µM (inactive). The GI50 [4] was 16.7 µM (inactive), the GI50 [5] was 19.5 µM (inactive) and the GI50 [6] was 28.7 µM (inactive). The GI50 [7] was 40.6 µM (inactive), the GI50 [8] was 22.5 µM (inactive) and the GI50 [9] was 26.7 µM (inactive). For the same molecule, the GI50 [10] was 91.6 µM (inactive), the GI50 [11] was 35.2 µM (inactive) and the GI50 [12] was 25.6 µM (inactive). For the same molecule, the GI50 [13] was 24.4 µM (inactive), the GI50 [14] was 30.5 µM (inactive) and the GI50 [15] was 15.2 µM (inactive). The GI50 [16] was 33.2 µM (inactive), the GI50 [17] was 22.4 µM (inactive) and the GI50 [18] was 18.6 µM (inactive). The GI50 [19] was 36.3 µM (inactive), the GI50 [20] was 17.7 µM (inactive) and the GI50 [21] was 20.3 µM (inactive). For the same molecule, the GI50 [22] was 23.3 µM (inactive), the GI50 [23] was 28.3 µM (inactive) and the GI50 [24] was 62.2 µM (inactive). For the same molecule, the GI50 [25] was 21.1 µM (inactive), the GI50 [26] was 19.2 µM (inactive) and the GI50 [27] was 17.3 µM (inactive). The GI50 [28] was 20.7 µM (inactive), the GI50 [29] was 19.5 µM (inactive) and the GI50 [30] was 35.7 µM (inactive). The GI50 [31] was 22.6 µM (inactive), the GI50 [32] was 18.7 µM (inactive) and the GI50 [33] was 19.6 µM (inactive). For the same molecule, the GI50 [34] was 16.6 µM (inactive), the GI50 [35] was 29.3 µM (inactive) and the GI50 [36] was 19.2 µM (inactive). The GI50 [37] was 23.9 µM (inactive), the GI50 [38] was 27.1 µM (inactive) and the GI50 [39] was 21.7 µM (inactive). For the same molecule, the GI50 [40] was 30.9 µM (inactive), the GI50 [41] was 30.1 µM (inactive) and the GI50 [42] was 18.7 µM (inactive). For the same molecule, the GI50 [43] was 19.6 µM (inactive), the GI50 [44] was 43.5 µM (inactive) and the GI50 [45] was 18.5 µM (inactive). For the same molecule, the GI50 [46] was 17.9 µM (inactive), the GI50 [47] was 48.6 µM (inactive) and the GI50 [48] was 29.3 µM. For the same molecule, the GI50 [49] was 20.8 µM (inactive).

With `CCOC(=O)C1COc2cc(-c3cc(=O)c4ccccc4o3)ccc2O1` (stereo unspecified) the GI50 [1] was 42.6 µM (inactive), the GI50 [2] was > 100 µM (inactive) and the GI50 [3] was > 100 µM (inactive). The GI50 [4] was > 100 µM (inactive), the GI50 [6] was > 100 µM (inactive) and the GI50 [50] was 33.8 µM (inactive). The GI50 [7] was 66.8 µM (inactive), the GI50 [9] was > 100 µM (inactive) and the GI50 [51] was > 100 µM (inactive). For the same molecule, the GI50 [52] was 78.9 µM (inactive), the GI50 [12] was > 100 µM (inactive) and the GI50 [53] was > 100 µM (inactive). For the same molecule, the GI50 [54] was > 100 µM (inactive), the GI50 [13] was 19.2 µM (inactive) and the GI50 [14] was 95.1 µM (inactive). The GI50 [15] was > 100 µM (inactive), the GI50 [16] was 36.1 µM (inactive) and the GI50 [17] was 24.7 µM (inactive). For the same molecule, the GI50 [18] was > 100 µM (inactive), the GI50 [55] was > 100 µM (inactive) and the GI50 [19] was > 100 µM (inactive). The GI50 [20] was > 100 µM (inactive), the GI50 [21] was 30.5 µM (inactive) and the GI50 [23] was > 100 µM (inactive). The GI50 [56] was 52.7 µM (inactive), the GI50 [24] was > 100 µM (inactive) and the GI50 [25] was 36.8 µM (inactive). For the same molecule, the GI50 [26] was > 100 µM (inactive), the GI50 [27] was 22.8 µM (inactive) and the GI50 [28] was > 100 µM (inactive). For the same molecule, the GI50 [29] was > 100 µM (inactive), the GI50 [30] was > 100 µM (inactive) and the GI50 [57] was 30.6 µM (inactive). For the same molecule, the GI50 [31] was 47.9 µM (inactive), the GI50 [33] was 51.1 µM (inactive) and the GI50 [34] was > 100 µM (inactive). For the same molecule, the GI50 [35] was 65.2 µM (inactive), the GI50 [36] was 29.7 µM (inactive) and the GI50 [58] was > 100 µM (inactive). For the same molecule, the GI50 [37] was > 100 µM (inactive), the GI50 [39] was > 100 µM (inactive) and the GI50 [40] was 42.9 µM (inactive). For the same molecule, the GI50 [41] was > 100 µM (inactive), the GI50 [42] was > 100 µM (inactive) and the GI50 [43] was > 100 µM (inactive). The GI50 [44] was 30.5 µM (inactive), the GI50 [45] was 29.5 µM (inactive) and the GI50 [46] was 47.8 µM (inactive). For the same molecule, the GI50 [47] was > 100 µM (inactive) and the GI50 [49] was 10.4 µM (inactive).

`O=C1Cc2nc(CO)c(CO)c(CO)c2CO1` was tested, and the GI50 [1] was > 100 µM (inactive), the GI50 [2] was > 100 µM (inactive) and the GI50 [3] was > 100 µM (inactive). The GI50 [4] was > 100 µM (inactive), the GI50 [5] was > 100 µM (inactive) and the GI50 [6] was > 100 µM (inactive). For the same molecule, the GI50 [50] was > 100 µM (inactive), the GI50 [7] was > 100 µM (inactive) and the GI50 [8] was > 100 µM (inactive). For the same molecule, the GI50 [10] was > 100 µM (inactive), the GI50 [51] was > 100 µM (inactive) and the GI50 [52] was > 100 µM (inactive). The GI50 [11] was > 100 µM (inactive), the GI50 [12] was > 100 µM (inactive) and the GI50 [53] was > 100 µM (inactive). For the same molecule, the GI50 [54] was > 100 µM (inactive), the GI50 [13] was > 100 µM (inactive) and the GI50 [14] was > 100 µM (inactive). For the same molecule, the GI50 [15] was > 100 µM (inactive), the GI50 [16] was > 100 µM (inactive) and the GI50 [17] was > 100 µM (inactive). The GI50 [18] was > 100 µM (inactive), the GI50 [55] was > 100 µM (inactive) and the GI50 [19] was > 100 µM (inactive). For the same molecule, the GI50 [20] was > 100 µM (inactive), the GI50 [21] was > 100 µM (inactive) and the GI50 [22] was > 100 µM (inactive). For the same molecule, the GI50 [23] was > 100 µM (inactive), the GI50 [56] was > 100 µM (inactive) and the GI50 [24] was > 100 µM (inactive). The GI50 [25] was > 100 µM (inactive), the GI50 [26] was > 100 µM (inactive) and the GI50 [27] was > 100 µM (inactive). The GI50 [28] was > 100 µM (inactive), the GI50 [29] was > 100 µM (inactive) and the GI50 [30] was > 100 µM (inactive). For the same molecule, the GI50 [31] was > 100 µM (inactive), the GI50 [33] was > 100 µM (inactive) and the GI50 [34] was > 100 µM (inactive). The GI50 [35] was > 100 µM (inactive), the GI50 [36] was > 100 µM (inactive) and the GI50 [58] was > 100 µM (inactive). The GI50 [37] was > 100 µM (inactive), the GI50 [38] was > 100 µM (inactive) and the GI50 [39] was > 100 µM (inactive). The GI50 [42] was > 100 µM (inactive), the GI50 [43] was > 100 µM (inactive) and the GI50 [44] was > 100 µM (inactive). For the same molecule, the GI50 [45] was > 100 µM (inactive), the GI50 [47] was > 100 µM (inactive) and the GI50 [48] was over 100 µM. The GI50 [49] was > 100 µM (inactive).
